Our source for the IC50 values is patent US11505573B2, “Peptide macrocycles against Acinetobacter baumannii” (Hoffmann-La Roche Inc., priority 2018, dated 2022).

Molecules are shown by their SMILES.

For the assay, the system named is A. baumannii ATCC 17978. The experiment in a line: Antimicrobial susceptibility testing: 50% growth inhibitory concentration (IC50) determination in Iso-Sensitest broth. The assay is classed as cell-based. The settings on record: Acinetobacter baumannii; A. baumannii strain ATCC17978; Iso-Sensitest medium; OD 600 nm over 16 h; 35±2° C.; read-out: IC50 ATCC17978 (50% growth inhibition concentration). The protocol:
Antimicrobial Susceptibility Testing: 50% Growth Inhibitory Concentration (IC50) Determination The in vitro antimicrobial activity of the compounds was alternatively determined according to the following procedure: The assay used a 10-points Iso-Sensitest broth medium to measure quantitatively the in vitro activity of the compounds against A. baumannii ATCC 17978. Stock compounds in DMSO were serially twofold diluted (e.g. range from 10 to 0.02 μM final concentration) in 384 wells microtiter plates and inoculated with 49 μl the bacterial suspension in Iso-Sensitest medium to have a final cell concentration of ˜5×10^(5) CFU/ml in a final volume/well of […] Microtiter plates were incubated at 35±2° C. Bacterial cell growth was determined by the measurement of optical density at λ=600 nm each 20 minutes over a time course of 16 h. Growth inhibition was calculated during the logarithmic growth of the bacterial cells by determination of the concentration inhibiting 50% (IC50) and 90% (IC90) of the growth. Table 1 provides the 50% growth inhibitory concentrations (IC50) in micromoles per liter of the compounds of present invention obtained against the A. baumannnii strain ATCC17978.

Regarding `CN1C(=O)[C@H](CCCN)NC(=O)[C@H](CCCN)NCc2cccnc2Sc2c(Cl)ccc(-c3ccc(-c4nnn[nH]4)cc3)c2CNC(=O)[C@@H]1Cc1c[nH]c2ccccc12` [Example 8.01, (11S,14S,17S)-11,14-bis(3-aminopropyl)-25-chloro-17-(1H-indol-3-ylmethyl)-16-methyl-22-[4-(1H-tetrazol-5-yl)phenyl]-2-thia-4,10,13,16,19-pentazatricyclo[19.4.0.03,8]pentacosa-1(21),3,5,7,22,24-hexaene-12,15,18-trione], the IC50 came to 20 nM.
Regarding `CN1C(=O)[C@H](CCCN)NC(=O)[C@H](CCCN)NCc2cccnc2Sc2c(Cl)ccc(-c3cnc(=O)[nH]c3)c2CNC(=O)[C@@H]1Cc1c[nH]c2ccccc12` [Example 8.02, (11S,14S,17S)-11,14-bis(3-aminopropyl)-25-chloro-17-(1H-indol-3-ylmethyl)-16-methyl-22-(2-oxo-1H-pyrimidin-5-yl)-2-thia-4,10,13,16,19-pentazatricyclo[19.4.0.03,8]pentacosa-1(21),3,5,7,22,24-hexaene-12,15,18-trione], the IC50 is 80 nM.
The figure for `CN1C(=O)[C@H](CCCN)NC(=O)[C@H](CCCN)NCc2cccnc2Sc2c(F)ccc(-c3ccc(S(=O)(=O)O)cc3)c2CNC(=O)[C@@H]1Cc1c[nH]c2ccccc12` [Example 9.00, 4-[(11S,14S,17S)-11,14-Bis(3-aminopropyl)-25-fluoro-17-(1H-indol-3-ylmethyl)-16-methyl-12,15,18-trioxo-2-thia-4,10,13,16,19-pentazatricyclo[19.4.0.03,8]pentacosa-1(25), 3(8),4,6,21,23-hexaen-22-yl]benzenesulfonic acid] is 20 nM; for `CN1C(=O)[C@H](CCCN)NC(=O)[C@H](CCCN)NCc2cccnc2Sc2c(F)ccc(-c3ccc(-c4nnn[nH]4)cc3)c2CNC(=O)[C@@H]1Cc1c[nH]c2ccccc12` [Example 9.01, (11S,14S,17S)-11,14-Bis(3-aminopropyl)-25-fluoro-17-(1H-indol-3-ylmethyl)-16-methyl-22-[4-(1H-tetrazol-5-yl)phenyl]-2-thia-4,10,13,16,19-pentazatricyclo[19.4.0.03,8]pentacosa-1(25), 3(8),4,6,21,23-hexaene-12,15,18-trione] it is 20 nM; for `CN1C(=O)[C@H](CCCN)NC(=O)[C@H](CCCN)NCc2cccnc2Sc2c(F)ccc(-c3ccc(P(=O)(O)O)cc3)c2CNC(=O)[C@@H]1Cc1c[nH]c2ccccc12` [Example 10.00, [4-[(11S,14S,17S)-11,14-Bis(3-aminopropyl)-25-fluoro-17-(1H-indol-3-ylmethyl)-16-methyl-12,15,18-trioxo-2-thia-4,10,13,16,19-pentazatricyclo[19.4.0.03,8]pentacosa-1(25), 3(8),4,6,21,23-hexaen-22-yl]phenyl]phosphonic acid] it is 620 nM.
The figure for `CN1C(=O)[C@H](CCCCN)NC(=O)[C@H](CCC(N)=O)NCc2cccnc2Sc2c(Cl)ccc(-c3ccc(P(=O)(O)O)cc3)c2CNC(=O)[C@@H]1Cc1c[nH]c2ccccc12` [Example 10.01, [4-[(11S,14S,17S)-14-(4-aminobutyl)-11-(3-amino-3-oxo-propyl)-25-chloro-17-(1H-indol-3-ylmethyl)-16-methyl-12,15,18-trioxo-2-thia-4,10,13,16,19-pentazatricyclo[19.4.0.03,8]pentacosa-1(21),3,5,7,22,24-hexaen-22-yl]phenyl]phosphonic acid] is 3030 nM; for `CN1C(=O)[C@H](CCCCN)NC(=O)[C@H](CCCN)NCc2cccnc2Sc2c(Cl)ccc(-c3ccc(P(=O)(O)O)cc3)c2CNC(=O)[C@@H]1Cc1c[nH]c2ccccc12` [Example 10.02, [4-[(11S,14S,17S)-14-(4-aminobutyl)-11-(3-aminopropyl)-25-chloro-17-(1H-indol-3-ylmethyl)-16-methyl-12,15,18-trioxo-2-thia-4,10,13,16,19-pentazatricyclo[19.4.0.03,8]pentacosa-1(21),3,5,7,22,24-hexaen-22-yl]phenyl]phosphonic acid] it is 150 nM.
The figure for `Cc1ccc(-c2ccc(S(=O)(=O)O)cc2)c2c1Sc1ncccc1CN[C@@H](CCCN)C(=O)N[C@@H](CCCCN)C(=O)N(C)[C@@H](Cc1c[nH]c3ccccc13)C(=O)NC2` [Example 11.00, 4-[(11S,14S,17S)-14-(4-Aminobutyl)-11-(3-aminopropyl)-17-(1H-indol-3-ylmethyl)-16,25-dimethyl-12,15,18-trioxo-2-thia-4,10,13,16,19-pentazatricyclo[19.4.0.03,8]pentacosa-1(25), 3(8),4,6,21,23-hexaen-22-yl]benzenesulfonic acid] is 20 nM; for `Cc1ccc(-c2ccc(-c3nnn[nH]3)cc2)c2c1Sc1ncccc1CN[C@@H](CCCN)C(=O)N[C@@H](CCCCN)C(=O)N(C)[C@@H](Cc1c[nH]c3ccccc13)C(=O)NC2` [Example 11.01, (11S,14S,17S)-14-(4-Aminobutyl)-11-(3-aminopropyl)-17-(1H-indol-3-ylmethyl)-16,25-dimethyl-22-[4-(1H-tetrazol-5-yl)phenyl]-2-thia-4,10,13,16,19-pentazatricyclo[19.4.0.03,8]pentacosa-1(25), 3(8),4,6,21,23-hexaene-12,15,18-trione] it is 20 nM; for `CN1C(=O)[C@H](CCCCN)NC(=O)[C@H](CCN)NCc2cccnc2Sc2c(Cl)ccc(-c3ccc(S(=O)(=O)O)cc3)c2CNC(=O)[C@@H]1Cc1c[nH]c2ccccc12` [Example 12.00, 4-[(11S,14S,17S)-14-(4-Aminobutyl)-11-(2-aminoethyl)-25-chloro-17-(1H-indol-3-ylmethyl)-16-methyl-12,15,18-trioxo-2-thia-4,10,13,16,19-pentazatricyclo[19.4.0.03,8]pentacosa-1(25), 3(8),4,6,21,23-hexaen-22-yl]benzenesulfonic acid] it is 20 nM.
As to `CN1C(=O)[C@H](CCCN)NC(=O)[C@H](CCN)NCc2cccnc2Sc2c(Cl)ccc(-c3ccc(S(=O)(=O)O)cc3)c2CNC(=O)[C@@H]1Cc1c[nH]c2ccccc12` [Example 13.00, 4-[(11S,14S,17S)-11-(2-Aminoethyl)-14-(3-aminopropyl)-25-chloro-17-(1H-indol-3-ylmethyl)-16-methyl-12,15,18-trioxo-2-thia-4,10,13,16,19-pentazatricyclo[19.4.0.03,8]pentacosa-1(25), 3(8),4,6,21,23-hexaen-22-yl]benzenesulfonic acid], the IC50 was 20 nM.
In the case of `C[C@@H]1NCc2cccnc2Sc2c(Cl)ccc(-c3ccc(S(=O)(=O)O)cc3)c2CNC(=O)[C@H](Cc2c[nH]c3ccccc23)N(C)C(=O)[C@H](CCCN)NC1=O` [Example 14.00, 4-[(11S,14S,17S)-14-(3-Aminopropyl)-25-chloro-17-(1H-indol-3-ylmethyl)-11,16-dimethyl-12,15,18-trioxo-2-thia-4,10,13,16,19-pentazatricyclo[19.4.0.03,8]pentacosa-1(25), 3(8),4,6,21,23-hexaen-22-yl]benzenesulfonic acid], the IC50 is 720 nM.
`COc1ccc(-c2ccc(S(=O)(=O)O)cc2)c2c1Sc1ncccc1CN[C@@H](CCCN)C(=O)N[C@@H](CCCCN)C(=O)N(C)[C@@H](Cc1c[nH]c3ccccc13)C(=O)NC2` [Example 15.00, 4-[(11S,14S,17S)-14-(4-Aminobutyl)-11-(3-aminopropyl)-17-(1H-indol-3-ylmethyl)-25-methoxy-16-methyl-12,15,18-trioxo-2-thia-4,10,13,16,19-pentazatricyclo[19.4.0.03,8]pentacosa-1(25), 3(8),4,6,21,23-hexaen-22-yl]benzenesulfonic acid]: the IC50 came to 80 nM.
With `COc1ccc(-c2ccc(-c3nnn[nH]3)cc2)c2c1Sc1ncccc1CN[C@@H](CCCN)C(=O)N[C@@H](CCCCN)C(=O)N(C)[C@@H](Cc1c[nH]c3ccccc13)C(=O)NC2` [Example 15.01, (11S,14S,17S)-14-(4-Aminobutyl)-1-(3-aminopropyl)-17-(1H-indol-3-ylmethyl)-25-methoxy-16-methyl-22-[4-(1H-tetrazol-5-yl)phenyl]-2-thia-4,10,13,16,19-pentazatricyclo[19.4.0.03,8]pentacosa-1(25), 3(8),4,6,21,23-hexaene-12,15,18-trione] the figure was 40 nM.
With `CC(=O)NS(=O)(=O)c1ccc(-c2ccc(Cl)c3c2CNC(=O)[C@H](Cc2c[nH]c4ccccc24)N(C)C(=O)[C@H](CCCCN)NC(=O)[C@H](CCCO)NCc2cccnc2S3)cc1` [Example 16.00, N-[4-[(11S,14S,7S)-14-(4-aminobutyl)-25-chloro-11-(3-hydroxypropyl)-17-(1H-indol-3-ylmethyl)-16-methyl-12,15,18-trioxo-2-thia-4,10,13,16,19-pentazatricyclo[19.4.0.03,8]pentacosa-1(21),3,5,7,22,24-hexaen-22-yl]phenyl]sulfonylacetamide], the IC50 came to 310 nM.
In the case of `CN1C(=O)[C@H](CCCCN)NC(=O)[C@H](CCCO)NCc2cccnc2Sc2c(Cl)ccc(-c3cnc(O)nc3)c2CNC(=O)[C@@H]1Cc1c[nH]c2ccccc12` [Example 16.01, (11S,14S,17S)-14-(4-Aminobutyl)-25-chloro-11-(3-hydroxypropyl)-22-(2-hydroxypyrimidin-5-yl)-17-(1H-indol-3-ylmethyl)-16-methyl-2-thia-4,10,13,16,19-pentazatricyclo[19.4.0.03,8]pentacosa-1(21),3,5,7,22,24-hexaene-12,15,18-trione], the IC50 was 1840 nM.
